Assay results published in the NIST ThermoML archive (doi:10.1016/j.tca.2005.10.007).

Conditions: 101.33 kPa, Liquid, Vibrating tube method

CC(O)CN (configuration not stated) [1-amino-2-propanol]
Conditions	mass density [kg/m3]
278.16 K	972.17
278.65 K	971.79
279.14 K	971.4
279.65 K	971.01
280.15 K	970.62
280.65 K	970.23
281.15 K	969.84
281.65 K	969.45
282.15 K	969.05
282.65 K	968.66
283.15 K	968.27
283.65 K	967.88
284.15 K	967.49
284.65 K	967.1
285.15 K	966.7
285.65 K	966.31
286.15 K	965.92
286.64 K	965.52
287.15 K	965.13
287.65 K	964.73
288.15 K	964.34
288.65 K	963.95
289.15 K	963.55
289.65 K	963.15
290.15 K	962.76
290.65 K	962.36
291.15 K	961.97
291.64 K	961.57
292.15 K	961.18
292.65 K	960.78
293.15 K	960.38
293.64 K	959.99
294.14 K	959.59
294.64 K	959.19
295.15 K	958.79
295.65 K	958.39
296.15 K	957.99
296.65 K	957.6
297.15 K	957.2
297.64 K	956.8
298.15 K	956.4
298.65 K	956
299.15 K	955.6
299.64 K	955.2
300.14 K	954.8
300.64 K	954.4
301.15 K	954
301.65 K	953.59
302.14 K	953.2
302.65 K	952.79
303.15 K	952.39
303.64 K	951.99
304.15 K	951.59
304.65 K	951.18
305.15 K	950.78
305.64 K	950.38
306.15 K	949.98
306.65 K	949.57
307.15 K	949.17
307.64 K	948.77
308.15 K	948.36
308.65 K	947.95
309.15 K	947.55
309.65 K	947.14
310.15 K	946.74
310.65 K	946.33
311.15 K	945.92
311.64 K	945.52
312.15 K	945.11
312.64 K	944.7
313.15 K	944.3
313.65 K	943.89
314.15 K	943.48
314.65 K	943.07
315.15 K	942.66
315.65 K	942.25
316.15 K	941.84
316.65 K	941.43
317.15 K	941.03
317.65 K	940.61
318.15 K	940.2
318.65 K	939.79
319.14 K	939.38
319.65 K	938.96
320.15 K	938.55
320.64 K	938.14
321.15 K	937.72
321.65 K	937.31
322.15 K	936.9
322.65 K	936.49
323.15 K	936.08
323.65 K	935.66
324.15 K	935.25
324.65 K	934.83
325.15 K	934.42
325.65 K	934.01
326.15 K	933.59
326.65 K	933.18
327.15 K	932.76
327.65 K	932.35
328.15 K	931.93
328.66 K	931.51
329.15 K	931.09
329.66 K	930.68
330.16 K	930.26
330.66 K	929.84
331.15 K	929.42
331.66 K	929
332.16 K	928.58
332.66 K	928.16
333.16 K	927.74
333.66 K	927.31
334.16 K	926.89
334.66 K	926.47
335.16 K	926.05
335.66 K	925.63
336.16 K	925.2
336.66 K	924.78
337.16 K	924.36
337.66 K	923.93
338.16 K	923.5
338.66 K	923.08
339.16 K	922.65
339.66 K	922.23
340.16 K	921.8
340.66 K	921.38
341.16 K	920.95
341.66 K	920.52
342.16 K	920.09
342.66 K	919.66
343.16 K	919.23
343.66 K	918.8
344.16 K	918.37
344.66 K	917.94
345.16 K	917.51
345.66 K	917.08
346.16 K	916.65
346.66 K	916.21
347.16 K	915.78
347.66 K	915.35
348.16 K	914.92
348.66 K	914.48
349.16 K	914.05
349.66 K	913.61
350.16 K	913.18
350.66 K	912.74
351.16 K	912.3
351.66 K	911.87
352.16 K	911.43
352.66 K	910.99
353.16 K	910.55
353.66 K	910.12
354.16 K	909.68
354.66 K	909.23
355.16 K	908.8
355.66 K	908.35
356.16 K	907.91
356.66 K	907.47
357.16 K	907.03
357.66 K	906.59
358.16 K	906.14
358.66 K	905.7
359.16 K	905.26
359.66 K	904.81
360.16 K	904.36
360.65 K	903.92
361.16 K	903.47
361.66 K	903.03
362.16 K	902.58
362.66 K	902.13
363.15 K	901.68
363.16 K	901.69
